Assays:
[1] = tested on: ragweed (common ragweed, Ambrosia elatior); test: Test A postemergence, ragweed; assay type: in vivo; conditions: Ambrosia artemisiifolia, post-emergence, 240 h, 0 to 100 scale (0 no effect, 100 complete control), read-out: Plant response rating, Ragweed; for pest or weed control at 31 g/ha: 31 g ai/ha; for pest or weed control at 125 g/ha: 125 g ai/ha
From the text: (§1) Seeds of plant species selected from barnyardgrass (Echinochloa crus-galli), kochia (Kochia scoparia), ragweed (common ragweed, Ambrosia elatior), ryegrass, Italian (Italian ryegrass, Lolium multiflorum), foxtail, giant (giant foxtail, Setaria faberii), foxtail, green (green foxtail, Setaria viridis) and pigweed (Amaranthus retroflexus) were planted into a blend of loam soil and sand and treated preemergence with a directed soil spray using test chemicals formulated in a non-phytotoxic solvent mixture which included a surfactant.
(§2) At the same time, plants selected from these weed species and also wheat (Triticum aestivum), corn (Zea mays), blackgrass (Alopecurus myosuroides), and galium (catchweed bedstraw, Galium aparine) were planted in pots containing the same blend of loam soil and sand and treated with postemergence applications of test chemicals formulated in the same manner. Plants ranged in height from 2 to 10 cm and were in the one- to two-leaf stage for the postemergence treatment. Treated plants and untreated controls were maintained in a greenhouse for approximately 10 days, after which time all treated plants were compared to untreated controls and visually evaluated for injury. […] A dash (-) response means no test result.

[2] = tested on: barnyardgrass (Echinochloa crus-galli); test: Test A postemergence, barnyardgrass; assay type: in vivo; conditions: Echinochloa crus-galli, post-emergence, 240 h, 0 to 100 scale (0 no effect, 100 complete control), read-out: Plant response rating, Barnyardgrass; for pest or weed control at 31 g/ha: 31 g ai/ha; for pest or weed control at 125 g/ha: 125 g ai/ha
From the text: as §1, §2

kochia (Kochia scoparia) [3] = test: Test A preemergence, kochia; assay type: in vivo; conditions: Bassia scoparia, pre-emergence, 240 h, 0 to 100 scale (0 no effect, 100 complete control), read-out: Plant response rating, Kochia; for pest or weed control at 31 g/ha: 31 g ai/ha; for pest or weed control at 125 g/ha: 125 g ai/ha
From the text: as §1, §2

[4] = tested on: ryegrass, Italian (Italian ryegrass, Lolium multiflorum); test: Test A preemergence, ryegrass, Italian; assay type: in vivo; conditions: Lolium multiflorum, pre-emergence, 240 h, 0 to 100 scale (0 no effect, 100 complete control), read-out: Plant response rating, Ryegrass, Italian; for pest or weed control at 31 g/ha: 31 g ai/ha; for pest or weed control at 125 g/ha: 125 g ai/ha
From the text: as §1, §2

[5] = tested on: pigweed (Amaranthus retroflexus); test: Test A postemergence, pigweed; assay type: in vivo; conditions: Amaranthus retroflexus, post-emergence, 240 h, 0 to 100 scale (0 no effect, 100 complete control), read-out: Plant response rating, Pigweed; for pest or weed control at 31 g/ha: 31 g ai/ha; for pest or weed control at 125 g/ha: 125 g ai/ha
From the text: as §1, §2

[6] = tested on: ragweed (common ragweed, Ambrosia elatior); test: Test A preemergence, ragweed; assay type: in vivo; conditions: Ambrosia artemisiifolia, pre-emergence, 240 h, 0 to 100 scale (0 no effect, 100 complete control), read-out: Plant response rating, Ragweed; for pest or weed control at 31 g/ha: 31 g ai/ha; for pest or weed control at 125 g/ha: 125 g ai/ha
From the text: as §1, §2

corn (Zea mays) = test: Test A postemergence, corn; assay type: in vivo; conditions: Zea mays, post-emergence, 240 h, 0 to 100 scale (0 no effect, 100 complete control); for Corn plant response rating (crop injury, 0 = no effect, 100 = complete kill) at 31 g/ha: 31 g ai/ha; for Corn plant response rating (crop injury, 0 = no effect, 100 = complete kill) at 125 g/ha: 125 g ai/ha
From the text: as §1, §2

[7] = tested on: ryegrass, Italian (Italian ryegrass, Lolium multiflorum); test: Test A postemergence, ryegrass, Italian; assay type: in vivo; conditions: Lolium multiflorum, post-emergence, 240 h, 0 to 100 scale (0 no effect, 100 complete control), read-out: Plant response rating, Ryegrass, Italian; for pest or weed control at 31 g/ha: 31 g ai/ha; for pest or weed control at 125 g/ha: 125 g ai/ha
From the text: as §1, §2

[8] = tested on: galium (catchweed bedstraw, Galium aparine); test: Test A postemergence, galium; assay type: in vivo; conditions: Galium, post-emergence, 240 h, 0 to 100 scale (0 no effect, 100 complete control), read-out: Plant response rating, Galium; for pest or weed control at 31 g/ha: 31 g ai/ha; for pest or weed control at 125 g/ha: 125 g ai/ha
From the text: as §1, §2

[9] = tested on: wheat (Triticum aestivum); test: Test A postemergence, wheat; assay type: in vivo; conditions: Triticum aestivum, post-emergence, 240 h, 0 to 100 scale (0 no effect, 100 complete control), read-out: Plant response rating, Wheat; for plant injury at 31 g/ha: 31 g ai/ha; for plant injury at 125 g/ha: 125 g ai/ha
From the text: as §1, §2

kochia (Kochia scoparia) [10] = test: Test A postemergence, kochia; assay type: in vivo; conditions: Bassia scoparia, post-emergence, 240 h, 0 to 100 scale (0 no effect, 100 complete control), read-out: Plant response rating, Kochia; for pest or weed control at 31 g/ha: 31 g ai/ha; for pest or weed control at 125 g/ha: 125 g ai/ha
From the text: as §1, §2

[11] = tested on: pigweed (Amaranthus retroflexus); test: Test A preemergence, pigweed; assay type: in vivo; conditions: Amaranthus retroflexus, pre-emergence, 240 h, 0 to 100 scale (0 no effect, 100 complete control), read-out: Plant response rating, Pigweed; for pest or weed control at 31 g/ha: 31 g ai/ha; for pest or weed control at 125 g/ha: 125 g ai/ha
From the text: as §1, §2

[12] = tested on: barnyardgrass (Echinochloa crus-galli); test: Test A preemergence, barnyardgrass; assay type: in vivo; conditions: Echinochloa crus-galli, pre-emergence, 240 h, 0 to 100 scale (0 no effect, 100 complete control), read-out: Plant response rating, Barnyardgrass; for pest or weed control at 31 g/ha: 31 g ai/ha; for pest or weed control at 125 g/ha: 125 g ai/ha
From the text: as §1, §2

[13] = tested on: blackgrass (Alopecurus myosuroides); test: Test A postemergence, blackgrass; assay type: in vivo; conditions: Alopecurus myosuroides, post-emergence, 240 h, 0 to 100 scale (0 no effect, 100 complete control), read-out: Plant response rating, Blackgrass; for pest or weed control at 31 g/ha: 31 g ai/ha; for pest or weed control at 125 g/ha: 125 g ai/ha
From the text: as §1, §2

[14] = tested on: foxtail, giant (giant foxtail, Setaria faberii); test: Test A preemergence, foxtail, giant; assay type: in vivo; conditions: Setaria faberi, pre-emergence, 240 h, 0 to 100 scale (0 no effect, 100 complete control), read-out: Plant response rating, Foxtail, Giant
From the text: as §1, §2

rice (Oryza sativa) = test: Test B flooded paddy test, rice; conditions: Oryza sativa, read-out: Plant response rating, Rice (0 to 100 scale, 0 is no effect, 100 is complete control)
[15] = tested on: ducksalad (Heteranthera limosa); test: Test B flooded paddy test, ducksalad; conditions: Heteranthera limosa, read-out: Plant response rating, Ducksalad (0 to 100 scale, 0 is no effect, 100 is complete control)
[16] = tested on: barnyardgrass (Echinochloa crus-galli); test: Test B flooded paddy test, barnyardgrass; conditions: Echinochloa crus-galli, read-out: Plant response rating, Barnyardgrass (0 to 100 scale, 0 is no effect, 100 is complete control)

O=C1CC(CCC(F)(F)F)c2c(Oc3ncc(Cl)cn3)cccc21 (centres unmarked) [Compound 11, 4-[(5-Chloro-2-pyrimidinyl)oxy]-2,3-dihydro-3-(3,3,3-trifluoropropyl)-1H-inden-1-one]
pest or weed control at 31 g/ha [1]: 0% | pest or weed control at 125 g/ha [1]: 10% | pest or weed control at 31 g/ha [2]: 20% | pest or weed control at 125 g/ha [2]: 30% | pest or weed control at 31 g/ha (kochia (Kochia scoparia) [3]): 0% | pest or weed control at 125 g/ha (kochia (Kochia scoparia) [3]): 20% | pest or weed control at 31 g/ha [4]: 0% | pest or weed control at 125 g/ha [4]: 20% | pest or weed control at 31 g/ha [5]: 40% | pest or weed control at 125 g/ha [5]: 50% | pest or weed control at 31 g/ha [6]: 0% | pest or weed control at 125 g/ha [6]: 0% | Corn plant response rating (crop injury, 0 = no effect, 100 = complete kill) at 31 g/ha (corn (Zea mays)): 0% | Corn plant response rating (crop injury, 0 = no effect, 100 = complete kill) at 125 g/ha (corn (Zea mays)): 10% | pest or weed control at 31 g/ha [7]: 30% | pest or weed control at 125 g/ha [7]: 40% | pest or weed control at 31 g/ha [8]: 10% | pest or weed control at 125 g/ha [8]: 40% | plant injury at 31 g/ha [9]: 0% | plant injury at 125 g/ha [9]: 10% | pest or weed control at 31 g/ha (kochia (Kochia scoparia) [10]): 20% | pest or weed control at 125 g/ha (kochia (Kochia scoparia) [10]): 50% | pest or weed control at 31 g/ha [11]: 10% | pest or weed control at 125 g/ha [11]: 100% | pest or weed control at 31 g/ha [12]: 0% | pest or weed control at 125 g/ha [12]: 50% | pest or weed control at 31 g/ha [13]: 0% | pest or weed control at 125 g/ha [13]: 20%

O=C1OCc2cccc(Oc3ncc(Cl)cn3)c2C1CCCC(F)(F)F (centres unmarked) [Compound 26, 5-[(5-Chloro-2-pyrimidinyl)oxy]-1,4-dihydro-4-(4,4,4-trifluorobutyl)-3H-2-benzopyran-3-one]
pest or weed control at 31 g/ha [1]: 0% | pest or weed control at 125 g/ha [1]: 10% | pest or weed control at 31 g/ha [2]: 100% | pest or weed control at 125 g/ha [2]: 100% | pest or weed control at 31 g/ha (kochia (Kochia scoparia) [3]): 0% | pest or weed control at 125 g/ha (kochia (Kochia scoparia) [3]): 20% | pest or weed control at 31 g/ha [4]: 0% | pest or weed control at 125 g/ha [4]: 10% | pest or weed control at 31 g/ha [5]: 30% | pest or weed control at 125 g/ha [5]: 60% | pest or weed control at 31 g/ha [6]: 0% | pest or weed control at 125 g/ha [6]: 0% | Corn plant response rating (crop injury, 0 = no effect, 100 = complete kill) at 31 g/ha (corn (Zea mays)): 10% | Corn plant response rating (crop injury, 0 = no effect, 100 = complete kill) at 125 g/ha (corn (Zea mays)): 20% | pest or weed control at 31 g/ha [7]: 0% | pest or weed control at 125 g/ha [7]: 0% | pest or weed control at 31 g/ha [8]: 20% | pest or weed control at 125 g/ha [8]: 50% | pest or weed control at 31 g/ha ([14]; 31 g ai/ha): 0% | pest or weed control at 125 g/ha ([14]; 125 g ai/ha): 60% | plant injury at 31 g/ha [9]: 0% | plant injury at 125 g/ha [9]: 0% | pest or weed control at 31 g/ha (kochia (Kochia scoparia) [10]): 20% | pest or weed control at 125 g/ha (kochia (Kochia scoparia) [10]): 60% | pest or weed control at 31 g/ha [11]: 20% | pest or weed control at 125 g/ha [11]: 100% | pest or weed control at 31 g/ha [12]: 0% | pest or weed control at 125 g/ha [12]: 30% | pest or weed control at 31 g/ha [13]: 0% | pest or weed control at 125 g/ha [13]: 0%

O=C1O[C@@H](CCCC(F)(F)F)c2c(Oc3ncc(Cl)cn3)cccc21 [Compound 2, (3S)-4-[(5-Chloro-2-pyrimidinyl)oxy]-3-(4,4,4-trifluorobutyl)-1-(3H)-isobenzofuranone]
pest or weed control at 31 g/ha [1]: 0% | pest or weed control at 125 g/ha [1]: 30% | pest or weed control at 31 g/ha [2]: 0% | pest or weed control at 125 g/ha [2]: 0% | pest or weed control at 31 g/ha (kochia (Kochia scoparia) [3]): 0% | pest or weed control at 125 g/ha (kochia (Kochia scoparia) [3]): 0% | pest or weed control at 31 g/ha [4]: 0% | pest or weed control at 125 g/ha [4]: 0% | pest or weed control at 31 g/ha [5]: 10% | pest or weed control at 125 g/ha [5]: 50% | pest or weed control at 31 g/ha [6]: 0% | pest or weed control at 125 g/ha [6]: 0% | Corn plant response rating (crop injury, 0 = no effect, 100 = complete kill) at 31 g/ha (corn (Zea mays)): 0% | Corn plant response rating (crop injury, 0 = no effect, 100 = complete kill) at 125 g/ha (corn (Zea mays)): 10% | pest or weed control at 31 g/ha [7]: 0% | pest or weed control at 125 g/ha [7]: 10% | pest or weed control at 31 g/ha [8]: 0% | pest or weed control at 125 g/ha [8]: 10% | plant injury at 31 g/ha [9]: 0% | plant injury at 125 g/ha [9]: 0% | pest or weed control at 31 g/ha (kochia (Kochia scoparia) [10]): 0% | pest or weed control at 125 g/ha (kochia (Kochia scoparia) [10]): 10% | pest or weed control at 31 g/ha [11]: 0% | pest or weed control at 125 g/ha [11]: 20% | plant injury at 250 g/ha (rice (Oryza sativa)): 0% | pest or weed control at 250 g/ha [15]: 0% | pest or weed control at 250 g/ha [16]: 0% | pest or weed control at 31 g/ha [12]: 0% | pest or weed control at 125 g/ha [12]: 0% | pest or weed control at 31 g/ha [13]: 0% | pest or weed control at 125 g/ha [13]: 0%

Source: patent US11427549B2, “Pyrimidinyloxy benzo-fused compounds as herbicides” (FMC Corporation, priority 2017, dated 2022)
